The values that follow are results of earlier work, collected in US20160143918A1, “DRUG RELEASING AGENT BASED ON beta-SITOSTEROL AND A PREPARATION METHOD THEREOF” (School of Medicine Jiaying University, priority 2014, published 2016).

Molecules are shown by their SMILES.

Take `CC[C@H](CC[C@@H](C)[C@H]1CC[C@H]2[C@@H]3CC=C4C[C@@H](O)CC[C@]4(C)[C@H]3CC[C@]12C)C(C)C` [β-sitosterol]: the “solubility in organic solvents” value (organic solvents) is “soluble in organic solvents”. Also, the solubility in water entry (water) was “insoluble in water”.
